Laboratory results as given in patent US20230022400A1, “IMMUNOMODULATORS” (Bristol-Myers Squibb Company, priority 2019, published 2023).
Where a SMILES comes first, the peptide text is derived from it. Bridges are numbered along the chain shown (N, C = ends). [ ]: non-standard residue; d: D form. The star is where a group is joined. Trp(1-CH2CO2Me) = COC(=O)Cn1cc(C[C@H](N)C(=O)O)c2ccccc21; Trp(1-CH2COOH) = N[C@@H](Cc1cn(CC(=O)O)c2ccccc12)C(=O)O; X7 = Cc1ccc(-n2c3ccccc3c3c(*)nc(C)nc32)nc1; X22 = Cc1ccc2c(c1)[nH]c1nc(Cl)nc(*)c12; Hyp = O=C(O)[C@@H]1C[C@@H](O)CN1; X8 = Cn1cnc2c(Cl)nc3sc(*)nc3c21; NMeNle = CCCC[C@H](NC)C(=O)O; X18 = c1ccc(-c2ccnc(*)n2)cc1; X4 = c1nc(*)c2c3c(sc2n1)CCC3; X17 = Clc1cc2nc(*)sc2cc1Cl; NMeA = CN[C@@H](C)C(=O)O; X14 = Clc1cccc2sc(*)nc12; Dab = NCC[C@H](N)C(=O)O; X21 = Fc1ccc2nc(*)sc2c1; Dap = NC[C@H](N)C(=O)O; X9 = Fc1cccc2sc(*)nc12; X1 = c1ccc2sc(*)nc2c1; X15 = c1cnc(*)cn1

Target: T1, PD-1/PD-L1 interaction (PD-1-Ig / PD-L1-His) (Homo sapiens, UniProt Q9NZQ7)
T1 construct: TVMV protease site (linker) (C); made in house; host or cells: HEK293T cells
T1 sequence (Q9NZQ7 18-239): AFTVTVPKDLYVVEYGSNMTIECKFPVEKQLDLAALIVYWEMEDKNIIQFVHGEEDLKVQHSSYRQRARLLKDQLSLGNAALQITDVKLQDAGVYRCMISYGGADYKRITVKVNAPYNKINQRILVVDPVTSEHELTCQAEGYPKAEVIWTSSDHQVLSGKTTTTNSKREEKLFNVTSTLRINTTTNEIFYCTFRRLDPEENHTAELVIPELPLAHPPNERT
Assay: PD-1/PD-L1 Homogenous Time-Resolved Fluorescence (HTRF) binding assay
Conditions: PD-L1-His 10 nM final, PD-1-Ig 20 nM final; inhibitors pre-incubated with PD-L1-His for 15 m
Source text: The ability of the compounds of formula (I) to bind to PD-L1 was investigated using a PD-1/PD-L1 Homogenous Time-Resolved Fluorescence (HTRF) binding assay.
The interaction of PD-1 and PD-L1 can be assessed using soluble, purified preparations of the extracellular domains of the two proteins. The PD-1 and PD-L1 protein extracellular domains were expressed as fusion proteins with detection tags, for PD-1, the tag was the Fc portion of Immunoglobulin (PD-1-Ig) and for PD-L1 it was the 6 histidine motif (PD-L1-His). All binding studies were performed in an HTRF assay buffer consisting of dPBS supplemented with 0.1% […] bovine serum albumin and 0.05% (v/v) Tween-20. For the h/PD-L1-His binding assay, inhibitors were pre-incubated with PD-L1-His (10 nM final) for 15 m in 4 μl of assay buffer, followed by addition of PD-1-Ig (20 nM final) in 1 μl of assay buffer and further incubation for 15 m. HTRF detection was achieved using europium crypate-labeled anti-Ig (1 nM final) and allophycocyanin (APC) labeled anti-His (20 nM final). Antibodies were diluted in HTRF detection buffer and 5 μl was dispensed on top of the binding reaction. The reaction mixture was allowed to equilibrate for 30 minutes and the resulting signal (665 nm/620 nm ratio) was obtained using an EnVision fluorometer. Additional binding assays were established between the human proteins PD-1-Ig/PD-L2-His (20 & 5 nM, respectively) and CD80-His/PD-L1-Ig (100 & 10 nM, respectively).
Recombinant Proteins: Human PD-1 (25-167) with a C-terminal human Fc domain of immunoglobulin G (Ig) epitope tag [hPD-1 (25-167)-3S-IG] and human PD-L1 (18-239) with a C-terminal His epitope tag [hPD-L1(18-239)-TVMV-His] were expressed in HEK293T cells and purified sequentially by ProteinA affinity chromatography and size exclusion chromatography. Human PD-L2-His and CD80-His was obtained through commercial sources.
Table 1 lists the IC50 values for representative examples of this disclosure measured in the PD-1/PD-L1 Homogenous Time-Resolved Fluorescence (HTRF) binding assay.

SMILES | IC50
CCCC[C@H]1C(=O)N(C)[C@@H](CCCC)C(=O)N[C@@H](CC(C)C)C(=O)N[C@H](C(=O)NCC(N)=O)CSCC(=O)N[C@@H](Cc2ccc(O)cc2)C(=O)N(C)[C@@H](C)C(=O)N[C@@H](CC(N)=O)C(=O)N2CCC[C@H]2C(=O)N[C@@H](CNc2nc3c(Cl)cccc3s2)C(=O)N[C@@H](CC(C)C)C(=O)N2C[C@H](O)C[C@H]2C(=O)N[C@@H](Cc2c[nH]c3ccccc23)C(=O)N[C@@H](CCNc2nc3c(Cl)cccc3s2)C(=O)N[C@@H](Cc2cn(CC(=O)O)c3ccccc23)C(=O)N1C [Compound 11006] ({CH2CO}-Y[NMeA]NP[Dap](X14)L[Hyp]W[Dab](X14)[Trp(1-CH2COOH)][NMeNle][NMeNle]LCG-NH2; thioether N-14) | 7.9 nM
CCCC[C@H]1C(=O)N(C)[C@@H](CCCC)C(=O)N[C@@H](CC(C)C)C(=O)N[C@H](C(=O)NCC(N)=O)CSCC(=O)N[C@@H](Cc2ccc(O)cc2)C(=O)N(C)[C@@H](C)C(=O)N[C@@H](CC(N)=O)C(=O)N2CCC[C@H]2C(=O)N[C@@H](CNc2nc3c(F)cccc3s2)C(=O)N[C@@H](CC(C)C)C(=O)N2C[C@H](O)C[C@H]2C(=O)N[C@@H](Cc2c[nH]c3ccccc23)C(=O)N[C@@H](CCN)C(=O)N[C@@H](Cc2cn(CC(=O)O)c3ccccc23)C(=O)N1C [Compound 11008] ({CH2CO}-Y[NMeA]NP[Dap](X9)L[Hyp]W[Dab][Trp(1-CH2COOH)][NMeNle][NMeNle]LCG-NH2; thioether N-14) | 5.3 nM
CCCC[C@H]1C(=O)N(C)[C@@H](CCCC)C(=O)N[C@@H](CC(C)C)C(=O)N[C@H](C(=O)NCC(N)=O)CSCC(=O)N[C@@H](Cc2ccc(O)cc2)C(=O)N(C)[C@@H](C)C(=O)N[C@@H](CC(N)=O)C(=O)N2CCC[C@H]2C(=O)N[C@@H](CNc2cnccn2)C(=O)N[C@@H](CC(C)C)C(=O)N2C[C@H](O)C[C@H]2C(=O)N[C@@H](Cc2c[nH]c3ccccc23)C(=O)N[C@@H](CCN)C(=O)N[C@@H](Cc2cn(CC(=O)O)c3ccccc23)C(=O)N1C [Compound 1005] ({CH2CO}-Y[NMeA]NP[Dap](X15)L[Hyp]W[Dab][Trp(1-CH2COOH)][NMeNle][NMeNle]LCG-NH2; thioether N-14) | 11 nM
CCCC[C@H]1C(=O)N(C)[C@@H](CCCC)C(=O)N[C@@H](CC(C)C)C(=O)N[C@H](C(=O)NCC(N)=O)CSCC(=O)N[C@@H](Cc2ccc(O)cc2)C(=O)N(C)[C@@H](C)C(=O)N[C@@H](CC(N)=O)C(=O)N2CCC[C@H]2C(=O)N[C@@H](CNc2nc3cc(Cl)c(Cl)cc3s2)C(=O)N[C@@H](CC(C)C)C(=O)N2C[C@H](O)C[C@H]2C(=O)N[C@@H](Cc2c[nH]c3ccccc23)C(=O)N[C@@H](CCNc2nc3cc(Cl)c(Cl)cc3s2)C(=O)N[C@@H](Cc2cn(CC(=O)O)c3ccccc23)C(=O)N1C [Compound 11005] ({CH2CO}-Y[NMeA]NP[Dap](X17)L[Hyp]W[Dab](X17)[Trp(1-CH2COOH)][NMeNle][NMeNle]LCG-NH2; thioether N-14) | 89 nM
CCCC[C@H]1C(=O)N(C)[C@@H](CCCC)C(=O)N[C@@H](CC(C)C)C(=O)N[C@H](C(=O)NCC(N)=O)CSCC(=O)N[C@@H](Cc2ccc(O)cc2)C(=O)N(C)[C@@H](C)C(=O)N[C@@H](CC(N)=O)C(=O)N2CCC[C@H]2C(=O)N[C@@H](CNc2nc(C)nc3c2c2ccccc2n3-c2ccc(C)cn2)C(=O)N[C@@H](CC(C)C)C(=O)N2C[C@H](O)C[C@H]2C(=O)N[C@@H](Cc2c[nH]c3ccccc23)C(=O)N[C@@H](CCN)C(=O)N[C@@H](Cc2cn(CC(=O)O)c3ccccc23)C(=O)N1C [Compound 21005] ({CH2CO}-Y[NMeA]NP[Dap](X7)L[Hyp]W[Dab][Trp(1-CH2COOH)][NMeNle][NMeNle]LCG-NH2; thioether N-14) | 25 nM
CCCC[C@H]1C(=O)N(C)[C@@H](CCCC)C(=O)N[C@@H](CC(C)C)C(=O)N[C@H](C(=O)NCC(N)=O)CSCC(=O)N[C@@H](Cc2ccc(O)cc2)C(=O)N(C)[C@@H](C)C(=O)N[C@@H](CC(N)=O)C(=O)N2CCC[C@H]2C(=O)N[C@@H](CNc2nc3ccccc3s2)C(=O)N[C@@H](CC(C)C)C(=O)N2C[C@H](O)C[C@H]2C(=O)N[C@@H](Cc2c[nH]c3ccccc23)C(=O)N[C@@H](CCN)C(=O)N[C@@H](Cc2cn(CC(=O)OC)c3ccccc23)C(=O)N1C [Compound 11004] ({CH2CO}-Y[NMeA]NP[Dap](X1)L[Hyp]W[Dab][Trp(1-CH2CO2Me)][NMeNle][NMeNle]LCG-NH2; thioether N-14) | 5.6 nM
CCCC[C@H]1C(=O)N(C)[C@@H](CCCC)C(=O)N[C@@H](CC(C)C)C(=O)N[C@H](C(=O)NCC(N)=O)CSCC(=O)N[C@@H](Cc2ccc(O)cc2)C(=O)N(C)[C@@H](C)C(=O)N[C@@H](CC(N)=O)C(=O)N2CCC[C@H]2C(=O)N[C@@H](CNc2ncnc3sc4c(c23)CCC4)C(=O)N[C@@H](CC(C)C)C(=O)N2C[C@H](O)C[C@H]2C(=O)N[C@@H](Cc2c[nH]c3ccccc23)C(=O)N[C@@H](CCN)C(=O)N[C@@H](Cc2cn(CC(=O)O)c3ccccc23)C(=O)N1C [Compound 21011] ({CH2CO}-Y[NMeA]NP[Dap](X4)L[Hyp]W[Dab][Trp(1-CH2COOH)][NMeNle][NMeNle]LCG-NH2; thioether N-14) | 2.6 nM
CCCC[C@H]1C(=O)N(C)[C@@H](CCCC)C(=O)N[C@@H](CC(C)C)C(=O)N[C@H](C(=O)NCC(N)=O)CSCC(=O)N[C@@H](Cc2ccc(O)cc2)C(=O)N(C)[C@@H](C)C(=O)N[C@@H](CC(N)=O)C(=O)N2CCC[C@H]2C(=O)N[C@@H](CNc2nc3ccccc3s2)C(=O)N[C@@H](CC(C)C)C(=O)N2C[C@H](O)C[C@H]2C(=O)N[C@@H](Cc2c[nH]c3ccccc23)C(=O)N[C@@H](CCNc2nc3ccccc3s2)C(=O)N[C@@H](Cc2cn(CC(=O)OC)c3ccccc23)C(=O)N1C [Compound 12001] ({CH2CO}-Y[NMeA]NP[Dap](X1)L[Hyp]W[Dab](X1)[Trp(1-CH2CO2Me)][NMeNle][NMeNle]LCG-NH2; thioether N-14) | 138 nM
CCCC[C@H]1C(=O)N(C)[C@@H](CCCC)C(=O)N[C@@H](CC(C)C)C(=O)N[C@H](C(=O)NCC(N)=O)CSCC(=O)N[C@@H](Cc2ccc(O)cc2)C(=O)N(C)[C@@H](C)C(=O)N[C@@H](CC(N)=O)C(=O)N2CCC[C@H]2C(=O)N[C@@H](CNc2nc3c(nc(Cl)c4ncn(C)c43)s2)C(=O)N[C@@H](CC(C)C)C(=O)N2C[C@H](O)C[C@H]2C(=O)N[C@@H](Cc2c[nH]c3ccccc23)C(=O)N[C@@H](CCNc2nc3c(nc(Cl)c4ncn(C)c43)s2)C(=O)N[C@@H](Cc2cn(CC(=O)O)c3ccccc23)C(=O)N1C [Compound 21004] ({CH2CO}-Y[NMeA]NP[Dap](X8)L[Hyp]W[Dab](X8)[Trp(1-CH2COOH)][NMeNle][NMeNle]LCG-NH2; thioether N-14) | 5.7 nM
CCCC[C@H]1C(=O)N(C)[C@@H](CCCC)C(=O)N[C@@H](CC(C)C)C(=O)N[C@H](C(=O)NCC(N)=O)CSCC(=O)N[C@@H](Cc2ccc(O)cc2)C(=O)N(C)[C@@H](C)C(=O)N[C@@H](CC(N)=O)C(=O)N2CCC[C@H]2C(=O)N[C@@H](CNc2nc3ccc(F)cc3s2)C(=O)N[C@@H](CC(C)C)C(=O)N2C[C@H](O)C[C@H]2C(=O)N[C@@H](Cc2c[nH]c3ccccc23)C(=O)N[C@@H](CCN)C(=O)N[C@@H](Cc2cn(CC(=O)O)c3ccccc23)C(=O)N1C [Compound 11010] ({CH2CO}-Y[NMeA]NP[Dap](X21)L[Hyp]W[Dab][Trp(1-CH2COOH)][NMeNle][NMeNle]LCG-NH2; thioether N-14) | 45 nM
CCCC[C@H]1C(=O)N(C)[C@@H](CCCC)C(=O)N[C@@H](CC(C)C)C(=O)N[C@H](C(=O)NCC(N)=O)CSCC(=O)N[C@@H](Cc2ccc(O)cc2)C(=O)N(C)[C@@H](C)C(=O)N[C@@H](CC(N)=O)C(=O)N2CCC[C@H]2C(=O)N[C@@H](CNc2nccc(-c3ccccc3)n2)C(=O)N[C@@H](CC(C)C)C(=O)N2C[C@H](O)C[C@H]2C(=O)N[C@@H](Cc2c[nH]c3ccccc23)C(=O)N[C@@H](CCNc2nccc(-c3ccccc3)n2)C(=O)N[C@@H](Cc2cn(CC(=O)O)c3ccccc23)C(=O)N1C [Compound 1003] ({CH2CO}-Y[NMeA]NP[Dap](X18)L[Hyp]W[Dab](X18)[Trp(1-CH2COOH)][NMeNle][NMeNle]LCG-NH2; thioether N-14) | 8.3 nM
CCCC[C@H]1C(=O)N(C)[C@@H](CCCC)C(=O)N[C@@H](CC(C)C)C(=O)N[C@H](C(=O)NCC(N)=O)CSCC(=O)N[C@@H](Cc2ccc(O)cc2)C(=O)N(C)[C@@H](C)C(=O)N[C@@H](CC(N)=O)C(=O)N2CCC[C@H]2C(=O)N[C@@H](CNc2nc(Cl)nc3[nH]c4cc(C)ccc4c23)C(=O)N[C@@H](CC(C)C)C(=O)N2C[C@H](O)C[C@H]2C(=O)N[C@@H](Cc2c[nH]c3ccccc23)C(=O)N[C@@H](CCN)C(=O)N[C@@H](Cc2cn(CC(=O)O)c3ccccc23)C(=O)N1C [Compound 21007] ({CH2CO}-Y[NMeA]NP[Dap](X22)L[Hyp]W[Dab][Trp(1-CH2COOH)][NMeNle][NMeNle]LCG-NH2; thioether N-14) | 4.4 nM
